Key:
[1] = molecular target: T1, BRAF (V600E) kinase (Homo sapiens, UniProt P15056, V600E); assay: Determination of BRAF (V600E) kinase inhibitory activity; format: biochemical; details: compound 1.0 μm; substrate GSTP1-MEK1 (K96R), [γ-32P]ATP
T1 construct: area encoding the BRAF kinase domain region, so that the protein contains an N-terminal Flag; made in house; host or cells: SF-21 insect cells infected with recombinant baculovirus BAC-V600E
Description: Determination of BRAF (V600E) Kinase Inhibitory Activity
A test compound (2.5 μL) dissolved in dimethyl sulfoxide (DMSO) was added to 37.5 μL of a reaction solution (25 mM HEPES (pH 7.5), 10 mM magnesium acetate, 1 mM dithiothreitol) containing 30 ng of BRAF (V600E) enzyme and 250 ng of recombinant protein GSTP1-MEK1 (K96R) prepared using FreeStyle 293 expression system (Invitrogen), and the mixture was incubated at room temperature for 10 min. 10 μL of ATP solution (2.5 μM ATP, 0.1 μCi [γ-^32P]ATP) was added to the obtained mixture, and the mixture was reacted at room temperature for 20 min. The reaction was quenched by adding 50 μL of ice-cooled 20% trichloroacetic acid (Wako Pure Chemical Industries, Ltd.) to the reaction solution. The reaction solution was allowed to stand at 4° C. for 30 min., and the acid-precipitable fraction was transferred to GF/C filter plate (Millipore Corporation) using cell harvester (PerkinElmer). The plate was dried at 45° C. for 60 min., and 40 μL of MicroScinti 0 (PerkinElmer) was added thereto. The radioactivity was measured using TopCount (PerkinElmer). The kinase inhibitory rate (%) of the test compound was calculated by the following formula: Inhibitory rate (%)=(1−(count of test compound−blank)÷(control−blank))×100
The count of the solution reacted without addition of the compound was used as a “control”, and the count of the solution without the compound and enzyme was used as a “blank”.

[2] = system: human colorectal cancer cell HT-29; assay: Colorectal cancer cell HT-29 growth suppressive activity in vitro; format: cell-based; details: 72 h, HT-29 cells, SRB staining; for IC50: 3 days culture; for inhibition at 5 µM: cell proliferation, compound 5.0 μM, 3 days, read-out: inhibitory rate (%) at 5.0 μM
Description: Colorectal Cancer Cell HT-29 Growth Suppressive Activity in Vitro
100 μL of a cell suspension (3,000 cells/well) of human colorectal cancer cell HT-29 (purchased from ATCC) was plated in a 96-well plate, and the cells were cultured at 37° C. in a 5% CO2 gas incubator. The next day, 100 μL of each test compound solution diluted in 2-fold serial dilution, diluted from maximum concentration 20 μM, was added, and the cells were cultured for 3 days. As for Example 44, 100 μl of each test compound solution (4-fold serially diluted, diluted from maximum concentration 20 μM) was added, and the cells were cultured for 3 days. The culture medium containing the test compound was removed, and the cells were washed with phosphate buffered saline (PBS). A 50% trichloroacetic acid solution was added to the final concentration of 10% (v/v), and the mixture was stood overnight at 4° C., whereby the cells were fixed to the plate. Then, a dye SRB 0.4% (w/v) solution (dissolved in 1% acetic acid) was added at 50 μl/well, whereby the cell protein was fixed and stained (Skehan et al., Journal Of National Cancer Institute, vol. 82, pp. 1107-1112, 1990). The cells were washed 3 times with 1% acetic acid solution (200 μL/well), and 100 μL of an extract (10 mM Tris buffer) was added to extract the dye. The absorbance at an absorption wavelength 550 nm was measured, and cell amount was measured as a protein amount. Taking the protein amount of the control group free of the test compound solution as 100%, the proportion of the residual protein amount of each treatment group was determined and the concentration of the compound necessary for suppressing the residual cell amount to 50% of the control (IC50 value) was calculated. The results are shown in Table 4-A. In addition, cell proliferation inhibitory rate (%) of the test compound at compound concentration 5.0 μM was calculated by the following formula. The results are shown in Table 4-B. Inhibitory rate (%)=(1−(absorbance of test compound−blank)÷(absorbance of control group−blank))×100

[3] = system: MEK1/2 phosphorylation in human colorectal cancer cell HT-29; assay: Colorectal cancer cell HT-29 intracellular MEK phosphorylation inhibitory activity in vitro; format: cell-based; details: HT-29 cells; for IC50: 2 hrs treatment, phosphorylated MEK1/2 by Western blot; for inhibition at 0.5 µM: MEK1/2 protein phosphorylation, compound 0.5 μM, 2 hrs, read-out: inhibitory rate (%) at 0.5 μM
Description: Colorectal Cancer Cell HT-29 Intracellular MEK Phosphorylation Inhibitory Activity In Vitro
500 μL of a cell suspension of human colorectal cancer cell HT-29 (purchased from American Type Culture Collection (ATCC)) was plated in a 48-well plate (100,000 cells/well), and the cells were cultured overnight at 37° C. in the presence of 5% CO2, treated with a test compound (250 μL/well) diluted in 3-fold dilution series and cultured for 2 hrs. After 2 hrs, the culture medium containing the test compound was removed, and the cells were lysed with SDS sample buffer (100 μL/well) and heated at 95° C. for 5 min. Thereafter, the cells lysed with SDS sample buffer were applied to SDS-PAGE, and the protein was transferred onto Sequi-Blot™ PVDF Membrane (Bio-Rad) by the Western blot method. The PDVF membrane was blocked with a Block-Ace solution (Snow Brand Milk Products Co., Ltd) dissolved in phosphate buffered saline (MP Biochemicals) to 5% W/V, and reacted overnight with anti-phosphorylated MEK1/2 (Ser217/221) (Cell signaling) diluted 1000-fold with phosphate buffered saline containing 0.4% Block-Ace. The membrane was washed with phosphate buffered saline containing 0.1% Tween 20 (Wako Pure Chemical Industries, Ltd.), and reacted at room temperature for 1 hr with HRP labeled rabbit IgG polyclonal antibody (Cell signaling) diluted 1000-fold with phosphate buffered saline containing 0.4% Block-Ace. The membrane was washed in the same manner as above, chemical luminescence of a phosphorylated MEK1/2 protein labeled with the antibody, which was caused by ECL-plus Detection Reagent (Amersham bioscience), was detected by Luminescent Image Analyzer LAS-1000 (FUJIFILM Corporation). Taking the luminescence of the control group free of the test compound as 100%, the concentration (IC50 value) of the compound necessary for inhibiting the residual luminescence to 50% of the control group was calculated. The results are shown in Table 3-A. In addition, MEK1/2 protein phosphorylation inhibitory rate (%) of the test compound at compound concentration 0.5 μM was calculated by the following formula. The results are shown in Table 3-B. Inhibitory rate (%)=(1−(luminescence of test compound−blank)÷(luminescence of control group−blank))×100

T1 sequence (P15056 457-717 V600E limits assumed): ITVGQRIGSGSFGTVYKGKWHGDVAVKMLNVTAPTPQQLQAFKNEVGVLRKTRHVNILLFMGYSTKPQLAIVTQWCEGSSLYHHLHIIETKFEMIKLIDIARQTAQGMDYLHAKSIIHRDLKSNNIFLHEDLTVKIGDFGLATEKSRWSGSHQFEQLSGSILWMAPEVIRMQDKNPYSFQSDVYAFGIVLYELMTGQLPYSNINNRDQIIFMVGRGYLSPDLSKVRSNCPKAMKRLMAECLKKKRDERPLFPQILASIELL

CN(c1ccc(F)c(NC(=O)Nc2ccc(C(F)(F)F)cc2)c1)c1ccc2nc(NC(=O)C3CC3)sc2n1 [Example 1, N-(5-{[4-fluoro-3-({[4-(trifluoromethyl)phenyl]carbamoyl}amino)phenyl](methyl)amino}[1,3]thiazolo[5,4-b]pyridin-2-yl)cyclopropanecarboxamide]
inhibitory rate (%) at 1.0 μm [1]: 98%

O=C(Nc1ccc(C(F)(F)F)nc1)Nc1cc(Oc2ccc3nc(NC(=O)C4CC4)sc3n2)ccc1F [Example 29, N-{5-[4-fluoro-3-({[6-(trifluoromethyl)pyridin-3-yl]carbamoyl}amino)phenoxy][1,3]thiazolo[5,4-b]pyridin-2-yl}cyclopropanecarboxamide]
IC50 [2]: < 500 nM
inhibition at 5 µM [2]: 74%

O=C(Nc1ccc(Cl)c(C(F)(F)F)c1)Nc1cc(Nc2ccc3nc(NC(=O)C4CC4)sc3n2)ccc1F [Example 13, N-(5-{[3-({[4-chloro-3-(trifluoromethyl)phenyl]carbamoyl}amino)-4-fluorophenyl]amino}[1,3]thiazolo[5,4-b]pyridin-2-yl)cyclopropanecarboxamide]
IC50 [3]: < 300 nM
inhibition at 0.5 µM [3]: 98%

Cc1ccc(NC(=O)Cc2ccsc2)cc1Oc1ccc2nc(NC(=O)C3CC3)sc2n1 [Example 44, N-(5-{2-methyl-5-[(thiophen-3-ylacetyl)amino]-phenoxy} [1,3]thia-zolo[5,4-b]pyridin-2-yl)cyclo-propanecarboxamide]
IC50 [2]: < 500 nM
inhibition at 5 µM [2]: 98%

O=C(Cc1ccc(C(F)(F)F)cc1)Nc1cc(Oc2ccc3nc(NC(=O)C4CC4)sc3n2)ccc1F [Example 21, N-{5-[4-fluoro-3-[{(4-(trifluoromethyl)phenyl]acetyl}amino)phenoxy][1,3]thiazolo[5,4-b]pyridin-2-yl}cyclopropanecarboxamide]
inhibitory rate (%) at 1.0 μm [1]: 98%

CN(c1cccc(NC(=O)Nc2ccc(OC(F)(F)F)cc2)c1)c1ccc2nc(NC(=O)C3CC3)sc2n1 [Example 9, N-(5-{methyl[3-({[4-(trifluoromethoxy)phenyl]carbamoyl}amino)phenyl]amino}[1,3]thiazolo[5,4-b]pyridin-2-yl)cyclopropanecarboxamide]
IC50 [2]: < 500 nM
inhibition at 5 µM [2]: 100%

O=C(Cc1ccccc1C(F)(F)F)Nc1cc(Oc2ccc3nc(NC(=O)C4CC4)sc3n2)ccc1F [Example 19, N-{5-[4-fluoro-3-({[2-(trifluoromethyl)phenyl]acetyl}amino)phenoxy][1,3]thiazolo[5,4-b]pyridin-2-yl}cyclopropanecarboxamide]
inhibitory rate (%) at 1.0 μm [1]: 100%

O=C(Cc1cccc(C(F)(F)F)c1)Nc1cc(Oc2ccc3nc(NC(=O)C4CC4)sc3n2)ccc1F [Example 22, N-{5-[4-fluoro-3-({[3-(trifluoromethyl)phenyl]acetyl}amino)phenoxy][1,3]thiazolo[5,4-b]pyridin-2-yl}cyclopropanecarboxamide]
inhibition at 0.5 µM [3]: 88%

CN(c1cccc(NC(=O)Nc2ccc(Cl)c(C(F)(F)F)c2)c1)c1ccc2nc(NC(=O)C3CC3)sc2n1 [Example 11, N-(5-{[3-({[4-chloro-3-(trifluoromethyl)phenyl]carbamoyl}amino)phenyl](methyl)amino}[1,3]thiazolo[5,4-b]pyridin-2-yl)cyclopropanecarboxamide]
inhibitory rate (%) at 1.0 μm [1]: 99%

CN(c1ccc(F)c(NC(=O)Nc2ccc(C(C)(C)C)cc2)c1)c1ccc2nc(NC(=O)C3CC3)sc2n1 [Example 3, N-{5-[(3-{[(4-tert-butylphenyl)carbamoyl]amino-}-4-fluorophenyl)(methyl)amino][1,3]thiazolo[5,4-b]pyridin-2-yl}cyclopropanecarboxamide]
IC50 [3]: < 300 nM
inhibition at 0.5 µM [3]: 94%

O=C(Nc1cccc(C(F)(F)F)c1)Nc1cc(Oc2ccc3nc(NC(=O)C4CC4)sc3n2)ccc1F [Example 23, N-{5-[4-fluoro-3-({[3-(trifluoromethyl)phenyl]carbamoyl}amino)phenoxy][1,3]thiazolo[5,4-b]pyridin-2-yl}cyclopropanecarboxamide]
IC50 [3]: < 300 nM
inhibition at 0.5 µM [3]: 88%
